Assay results as given in patent US20140287918A1, “USE OF PEUMUS BOLDUS EXTRACT OBTAINED BY MEANS OF IN VIVO CULTURE AND HAVING ANTI-BOTRYTIS, ALLELOPATHIC AND ANTIOXIDANT ACTIVITY” (UNIVERSIDAD DE SANTIAGO DE CHILE, priority 2011, published 2014).
Values after ≈ are worked out from the molar mass of the structure shown.

Assay: antioxidant capacity (scavenging of free radical DPPH)
Conditions: main component of the extract
Excerpt: The extract was obtained by sonication in ethanol 85% at a ratio of 1 g of tissue in 10 volumes of solvent.

COc1cc(C(=O)O)cc(OC)c1O [syringic acid]
EC50 (antioxidant capacity): 170 µg/mL (≈ 858 µM)
